Data taken from US7666639B2, “Plant deoxyribonucleoside kinase enzymes and their use” (priority 2002, dated 2010).

What was measured:
[1] = system: Glioblastoma U-118-MG cells transduced with PZG190 (AtdCGK); assay: Cell proliferation assay - cytotoxicity (XTT), U-118-MG transduced with PZG190; format: cell-based; settings: Homo sapiens; U-118-MG PZG190; 96-120 hours of drug exposure
Procedure: (§1) Two constructs were obtained: AtdCGK (PZG190) and TomdCGK (PZG193). LCXSN alone was used as a control.
(§2) The virus containing medium was subsequently used to transduce the cancer cell lines with a MOI of 5.
(§3) Human breast MCF-7 (ATCC HTB-22) and Glioblastoma U-118-MG (ATCC HTB-15) cancer cells were purchased from the American Type Culture Collection. Cells were cultured in RPMI, E-MEM or D-MEM (Cambrex, Bio Whittaker Cat. No. 12-115-F, 12-611 and 12-741-F) with 10% (v/v) Australian originated fetal calf serum (Cambrex, Bio Whittaker Cat. No. 12-611) and 1 ml/l of Gentamicin (Cambrex, Bio Whittaker Cat. No. 17-518). Cells were grown at 37° C. in a humidified incubator with a gas phase of 5% CO2. […]
(§4) Cells were plated at densities range of 1.500-3.500 cells/well in 96-well plates coated with Poly-L-lysine (Sigma Cat. No. P6282) Gemcitabine (obtained from Orifarm A/S—DK) was added after 24 hours of incubation at 37° C., 5% CO2, and the medium containing the nucleoside analog. […] The IC50 value of the investigated drug/compound was calculated as the mean of these experiments using SigmaPlot®) (SPSS Science, Dyrberg Traiding—DK).
(§5) The sensitivity of the untransduced cells, and of the cells transduced with either the retroviral vector alone ore the vector containing plant kinases for Gemcitabine was determined.
(§6) The cytotoxicity (IC50 value) was determined after 96-120 hours of drug exposure.

[2] = system: breast MCF-7 cells, parental; assay: Cell proliferation assay - cytotoxicity (XTT), MCF-7 parental; format: cell-based; settings: Homo sapiens, MCF7, 96-120 hours of drug exposure
Procedure: (§7) Human breast MCF-7 (ATCC HTB-22) and Glioblastoma U-118-MG (ATCC HTB-15) cancer cells were purchased from the American Type Culture Collection. Cells were cultured in RPMI, E-MEM or D-MEM (Cambrex, Bio Whittaker Cat. No. 12-115-F, 12-611 and 12-741-F) with 10% (v/v) Australian originated fetal calf serum (Cambrex, Bio Whittaker Cat. No. 12-611) and 1 ml/l of Gentamicin (Cambrex, Bio Whittaker Cat. No. 17-518). Cells were grown at 37° C. in a humidified incubator with a gas phase of 5% CO2.
as §4, with “analog. Each experiment was performed in four replicates. Cell survival was assayed after 96-120 hours of drug exposure, by XTT cell proliferation kit (X) kit II, Roche Cat. No. 1 465 015).” for “analog.”
as §5, §6

[3] = system: KY895 cells transformed with pGEX-2T-TOM-dCK/dGK; assay: LD100 for growth of transformed KY895 on nucleoside analog plates, pGEX-2T-TOM-dCK/dGK; format: cell-based, E. coli
Procedure: (§8) Deoxyribonucleoside kinases are of interest as suicide-genes to be used in gene-mediated therapy of cancer or viral infections. In this example the potential of the plant kinases of the invention to convert different nucleoside analogs are compared to that of the human Herpes simplex virus type 1 thymidine kinase (HSV1-TK) in a bacterial test system.
(§9) The experiment was carried out essentially as described by Knecht et al. [Knecht W, Munch-Petersen B and Piskur J: Identification of residues involved in the specificity and regulation of the highly efficient multisubstrate deoxyribonucleoside kinase from Drosophila melanogaster; J. Mol. Biol. 2000 301 827-837]. Briefly, overnight cultures of transformed KY895 were diluted 200-filed in 10% glyercol and 2 μl drops of the dilutions were spotted on M9 minimal medium plates [Ausubel F, Brent R, Kingston R E, Moore D D, Seidman J G, Smith J A & Struhl K (Eds.): Short protocols in molecular biology; 3rd edition (1995) pp. 1-2, Wiley, USA] supplemented with 0.2% glucose, 40 μg/ml isoleucine, 40 μg/ml valine, 100 μg/ml ampicillin and with or without nucleoside analogs. Growth was inspected visually after 24 hours of incubation at 37° C.

[4] = system: KY895 cells transformed with pGEX-2T-AT-dCK/dGK; assay: LD100 for growth of transformed KY895 on nucleoside analog plates, pGEX-2T-AT-dCK/dGK; format: cell-based, E. coli
Procedure: as §8, §9

[5] = system: KY895 cells transformed with pGEX-2T-TOM-ΔNdCK/dGKΔC; assay: LD100 for growth of transformed KY895 on nucleoside analog plates, pGEX-2T-TOM-ΔNdCK/dGKΔC; format: cell-based, E. coli; settings: transformant pGEX-2T-TOM-ΔNdCK/dGKΔC; M9 plates, 24 hours at 37° C.
Procedure: as §8, §9

[6] = system: KY895 cells transformed with pGEX-2T-TOM-ΔNdCK/dGK; assay: LD100 for growth of transformed KY895 on nucleoside analog plates, pGEX-2T-TOM-ΔNdCK/dGK; format: cell-based, E. coli
Procedure: as §8, §9

[7] = system: breast MCF-7 cells transduced with PZG190 (AtdCGK); assay: Cell proliferation assay - cytotoxicity (XTT), MCF-7 transduced with PZG190; format: cell-based, Human
Procedure: as §1, §2, §3, §4, §5, §6

[8] = system: KY895 cells transformed with pGEX-2T-HSV-TK; assay: LD100 for growth of transformed KY895 on nucleoside analog plates, pGEX-2T-HSV-TK; format: cell-based, E. coli; settings: transformant pGEX-2T-HSV-TK; M9 plates, 24 hours at 37° C.
Procedure: as §8, §9

[9] = system: KY895 cells transformed with pGEX-2T-TOM-dCK/dGKΔC; assay: LD100 for growth of transformed KY895 on nucleoside analog plates, pGEX-2T-TOM-dCK/dGKΔC; format: cell-based, E. coli; settings: transformant pGEX-2T-TOM-dCK/dGKΔC; M9 plates, 24 hours at 37° C.
Procedure: as §8, §9

[10] = system: breast MCF-7 cells transduced with PZG193 (TomdCGK); assay: Cell proliferation assay - cytotoxicity (XTT), MCF-7 transduced with PZG193; format: cell-based, Human
Procedure: as §1, §2, §3, §4, §5, §6

[11] = system: Glioblastoma U-118-MG cells, parental; assay: Cell proliferation assay - cytotoxicity (XTT), U-118-MG parental; format: cell-based; settings: Homo sapiens, 96-120 hours of drug exposure
Procedure: as §7
as §4, with “analog. Each experiment was performed in four replicates. Cell survival was assayed after 96-120 hours of drug exposure, by XTT cell proliferation kit (X) kit II, Roche Cat. No. 1 465 015).” for “analog.”
as §5, §6

[12] = system: KY895 cells transformed with pGEX-2T; assay: LD100 for growth of transformed KY895 on nucleoside analog plates, pGEX-2T; format: cell-based, E. coli; settings: transformant pGEX-2T; M9 plates, 24 hours at 37° C.
Procedure: as §8, §9

[13] = system: cells transduced with the pLCXSN vector alone; assay: Cell proliferation assay - cytotoxicity (XTT), cells transduced with pLCXSN vector alone; format: cell-based, Human; settings: pLCXSN vector alone versus parental
Procedure: as §1, §2, §3, §4, §5, §6

[14] = system: Arabidopsis thaliana dNK enzyme (AT-dCK/dGK); assay: Deoxyribonucleoside kinase activity in extract of KY895 transformed with pGEX-2T-AT-dCK/dGK; format: biochemical; settings: for ability to phosphorylate the deoxyribonucleoside (in words): pGEX-2T-AT-dCK/dGK
Procedure: (§10) Transformed KY895 strains were grown to an OD600 nm of 0.5-0.6 in LB/Ampicillin (100 μg/ml) medium at 37° C., and protein expression was induced by addition of 100 μM IPTG. The cells were further grown for 4 hours at 25° C. and subsequently harvested by centrifugation.
(§11) Pellets were stored at −80° C. until activity testing. Pellets were submitted to brief sonification in extraction buffer (50 mM Tris/HCl pH 7.5, 1 mM DTT, 10% (v/v) glycerol, 1% (v/v) Triton X-100, protease inhibitor cocktail (Complete™ from Roche Diagnostics).
(§12) Deoxyribonucleoside kinase activities were determined in the KY895 extracts by initial velocity measurements based on four time samples by the DE-81 filter paper assay using tritium-labelled nucleoside substrates. 4 to 20 μg extracts were used in the assays.
(§13) The four natural deoxyribonucleosides were tested at a fixed concentration of 100 μM. The highest specific activity in each extract was set to 100%.

[15] = system: C-terminally deleted tomato dNK enzyme (TOM-dCK/dGKΔC); assay: Deoxyribonucleoside kinase activity in extract of KY895 transformed with pGEX-2T-TOM-dCK/dGKΔC; format: biochemical, Lycopersicum esculentum; settings: for Deoxyribonucleoside kinase activity (relative): highest specific activity in extract = 100%
Procedure: (§14) The E. coli strain KY895 (F^−, tdk-1, ilv) [Knecht W, Munch-Petersen B and Piskur J: Identification of residues involved in the specificity and regulation of the highly efficient multisubstrate deoxyribonucleoside kinase from Drosophila melanogaster; J. Mol. Biol. 2000 301 827-837] was transformed by various expression plasmids using standard techniques. Transformed KY895 strains were grown to an OD600 nm of 0.5-0.6 in LB/Ampicillin (100 μg/ml) medium at 37° C., and protein expression was induced by addition of 100 μM IPTG. The cells were further grown for 4 hours at 25° C. and subsequently harvested by centrifugation.
as §11
(§15) Deoxyribonucleoside kinase activities were determined in the KY895 extracts by initial velocity measurements based on four time samples by the DE-81 filter paper assay using tritium-labelled nucleoside substrates. 4 to 20 μg extracts were used in the assays. The assay was done as described by Munch-Petersen et al. [Munch-Petersen, B., Knecht, W, Lenz, C., Sondergaard, L. & Piskur, J: Functional expression of a multisubstrate deoxyribonucleoside kinase from Drosophila melanogaster and its C-terminal deletion mutants; J. Biol. Chem. 2000 275 6673-6679].
(§16) The protein concentration was determined according to Bradford with BSA as standard protein [Bradford M M: A rapid and sensitive method for the quantitation of microgram quantities of protein utilizing the principle of protein-dye binding; Anal. Biochem. 1976 72 248-254]. SDS-PAGE was done according to the procedure of Laemmli [Laemmli U K: Cleavage of structural proteins during the assembly of the head of bacteriophage T4; Nature 1970 227 680-685], and proteins were visualized by Coomassie staining to verify recombinant protein expression.
as §13

[16] = system: N-terminally deleted tomato dNK enzyme (TOM-ΔNdCK/dGK); assay: Deoxyribonucleoside kinase activity in extract of KY895 transformed with pGEX-2T-TOM-ΔNdCK/dGK; format: biochemical, Lycopersicum esculentum; settings: for ability to phosphorylate the deoxyribonucleoside (in words): pGEX-2T-TOM-ΔNdCK/dGK
Procedure: as §14, §11, §15, §16, §13

[17] = system: tomato dNK enzyme (TOM-dCK/dGK); assay: Deoxyribonucleoside kinase activity in extract of KY895 transformed with pGEX-2T-TOM-dCK/dGK; format: biochemical, Lycopersicum esculentum; settings: for ability to phosphorylate the deoxyribonucleoside (in words): pGEX-2T-TOM-dCK/dGK
Procedure: as §10, §11, §12, §13

[18] = extract of pGEX-2T-TOM-dCK/dGKΔC transformant, substrate 100 μM

Nc1ccn([C@@H]2O[C@H](CO)[C@@H](O)C2(F)F)c(=O)n1 [dFdC, 2′,2′-difluorodeoxycytidine]
IC50 [1]: 0.3 nM | IC50 [2]: 3120 nM | killed at fold lower concentrations than cells transformed with pGEX-2T-HSV-TK or pGEX-2T ([3]; KY895 with expression plasmid for TOM-dCK/dGK): 10 fold | LD100 for growth of transformed KY895 cells ([3]; transformant pGEX-2T-TOM-dCK/dGK, M9 plates, 24 hours at 37° C.): 10 µM | LD100 fold lower than that of HSV1-TK ([4]; KY895 with AT-dCK/dGK versus HSV1-TK): 10000 fold | LD100 for growth of transformed KY895 cells ([4]; transformant pGEX-2T-AT-dCK/dGK, M9 plates, 24 hours at 37° C.): 0.01 µM | LD100 for growth of transformed KY895 cells [5]: 100 µM | killed at fold lower concentrations than cells transformed with pGEX-2T-HSV-TK or pGEX-2T ([6]; KY895 with expression plasmid for TOM-ΔNdCK/dGK): 10 fold | LD100 for growth of transformed KY895 cells ([6]; transformant pGEX-2T-TOM-ΔNdCK/dGK, M9 plates, 24 hours at 37° C.): 10 µM | IC50 ([7]; Homo sapiens, MCF7, MCF-7 PZG190, 96-120 hours of drug exposure): 500 nM | Sensitivity factor ([7]; MCF-7 PZG190 compared to the parental cell line): 6-fold | LD100 for growth of transformed KY895 cells [8]: 100 µM | LD100 for growth of transformed KY895 cells [9]: 100 µM | IC50 ([10]; Homo sapiens, MCF7, MCF-7 PZG193, 96-120 hours of drug exposure): 402 nM | Sensitivity factor ([10]; MCF-7 PZG193 compared to the parental cell line): 8-fold | IC50 [11]: 6.2 nM | LD100 for growth of transformed KY895 cells [12]: 100 µM | difference in sensitivity between the parental cell line and cells transduced with the pLCXSN vector alone [13]: less than 1 fold

Nc1nc2c(ncn2[C@H]2C[C@H](O)[C@@H](CO)O2)c(=O)[nH]1 [dGuo, deoxyguanosine]
Deoxyribonucleoside kinase activity (relative) ([14]; extract of pGEX-2T-AT-dCK/dGK transformant, substrate 100 μM, highest specific activity in extract = 100%): 91% | ability to phosphorylate the deoxyribonucleoside (in words) [14]: able to phosphorylate | Deoxyribonucleoside kinase activity (relative) [15, 18]: 74% | specific activity corresponding to 100% ([16]; extract of pGEX-2T-TOM-ΔNdCK/dGK transformant, substrate 100 μM): (0.32) mU/mg | Deoxyribonucleoside kinase activity (relative) ([16]; extract of pGEX-2T-TOM-ΔNdCK/dGK transformant, substrate 100 μM, highest specific activity in extract = 100%): 100% | ability to phosphorylate the deoxyribonucleoside (in words) [16]: able to phosphorylate | specific activity corresponding to 100% ([17]; extract of pGEX-2T-TOM-dCK/dGK transformant, substrate 100 μM): (3.3) mU/mg | Deoxyribonucleoside kinase activity (relative) ([17]; extract of pGEX-2T-TOM-dCK/dGK transformant, substrate 100 μM, highest specific activity in extract = 100%): 100% | ability to phosphorylate the deoxyribonucleoside (in words) [17]: able to phosphorylate

Cc1cn([C@H]2C[C@H](O)[C@@H](CO)O2)c(=O)[nH]c1=O [dThd, thymidine]
ability to phosphorylate the deoxyribonucleoside (in words) [14]: not | specific activity corresponding to 100% [15, 18]: (0.27) mU/mg | Deoxyribonucleoside kinase activity (relative) [15, 18]: 100% | substrate conversion (in words) ([15]; pGEX-2T-TOM-dCK/dGKΔC): fastest converted substrate | ability to phosphorylate the deoxyribonucleoside (in words) [16]: not | ability to phosphorylate the deoxyribonucleoside (in words) [17]: not
